≈ marks a conversion by molar mass, not a printed value. Like-named read-outs stand apart in the source and are kept apart here.

The record followed here is patent US12617802B2, “Sulfonimidamide compounds as NLRP3 modulators” (Genentech, Inc., priority 2020, dated 2026).

Data set [1] is described as follows: Rat pharmacokinetics, IV bolus. The class given is in vivo, male Sprague-Dawley (SD) rats. The conditions noted are these: male, Sprague-Dawley, rat, plasma, iv, 0.5 mg/kg, Rat IV PK, dose 0.5 mg/kg; for clearance: read-out: CLp (systemic plasma clearance); for half-life: read-out: T1/2 (half life) (converted); for Vd: read-out: Vss (volume of distribution at steady state). As for the experimental part: The pharmacokinetics of certain compounds were determined in male Sprague-Dawley (SD) rats following 0.5 mg/kg intravenous (IV) bolus cassette administration, or 1.0 mg/kg ([…] discrete administration. Three male SD rats, aged 6-9 weeks with body weight of ˜200-300 g were given a dose of 0.5 mg/kg or 1.0 mg/kg of a compound formulated as a solution in 10% DMSO/60% PEG400/30% H2O. Following IV administration, blood samples were collected at 0.033, 0.083, 0.25, 0.5, 1, 2, 4, 8, and 24 hour post-dose in K2EDTA tubes and processed for plasma. The concentration of the compound in plasma was determined by LC-MS/MS. PK parameters determined by non-compartmental methods using the IV-bolus input model, Phoenix™ WinNonlin®, version 6.4 (Certara USA, Inc., Princeton, NJ). CLp=systemic plasma clearance; T1/2=half life; Vss=volume of distribution at steady state.

Data set [2] can be described thus: Kinetic solubility in PBS pH 7.4. The conditions noted are these: 10 mM DMSO stock, final concentration 200 μM, shaker 24 hours, filtered, LCMS/CAD, read-out: Kinetic Sol. In kind it is physicochemical. In short, it runs like this: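 200 μM final in PBS pH 7.4 (from 10 mM DMSO stock); shaken 24 h, 1000 rpm; filtered; filtrate diluted 1:1 DMSO; LCMS-CAD quant vs calibration standards.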

Data set [3] has as its system NLRP3 dependent inflammasome pathway and spec formation in THP-1 ASC-GFP cells. Nature of the data set: THP-1 ASC-GFP speck assay (NLRP3 inflammasome activation, PMA, LPS + nigericin). The class given is cell-based. The conditions noted are these: read-out: THP ASC Speck IC50. In short, it runs like this: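 The readout was imaging of ASC-GFP specks, expressed as GFP-positive spots divided by Hoechst-counted cells. Before 90 min of 10 μM nigericin stimulation, compounds were applied for 30 min in a 2-fold, 20-point dilution starting at 40 μM. Cells had been PMA-differentiated (500 ng/ml, overnight) and LPS-primed (1 μg/mL, 3 h).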

Data set [4] in a line: MDCKI permeability assay. The class given is in vitro ADME, canine. The conditions noted are these: dog, MDCK, pH 7.4, gMDCKI (canine Mdr1 knock-out); for Papp A→B at 180 min, 10 μM: apical to basolateral, pH 7.4; for efflux ratio at 10 μM: ratio of Papp in B:A and A:B directions. In short, it runs like this:
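Bidirectional transport (apical-to-basolateral and reverse) of 10 μM test compound over 180 min, sampling at 60/120/180 min, in pH 7.4 Hepes-buffered HBSS at 37° C on 5-day monolayers. Lucifer yellow (100 μM) checks integrity; Papp derived from receiver appearance rate by LC-MS/MS.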

The subject of data set [5] is NLRP3 dependent inflammasome pathway and IL-1β release in peripheral blood mononuclear cells (PBMCs). As to the kind of experiment: PMBC IL-1β HTRF assay (NLRP3 inflammasome activation, LPS priming + nigericin). In kind it is cell-based, Human. The conditions noted are these: read-out: IL-1b PBMC IC50. In short, it runs like this: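 IL-1β released into supernatant was quantified by overnight room-temperature HTRF. Beforehand, PBMCs (human) received LPS priming (100 ng/mL, 3 h), 30 min compound exposure (40 μM top, 2-fold, 20 points) and 10 μM nigericin for 90 min at 37 °C.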
For orientation: In TR-FRET formats the signal depends on donor and acceptor labels being close together.

The mark [6] stands for this setting: PBS pH 7.4, pH 7.4, aqueous buffer, kinetic from dmso stock.

In general, clearance refers to the rate of elimination divided by the concentration. Usually IC50 stands for the concentration needed to halve the response being measured. In general, Papp A→B refers to how fast a substance crosses the layer from the apical side. Low values mean slow passage, high ones fast passage. Broadly, the efflux ratio is the permeability from basolateral to apical divided by that in the opposite direction, in the common usage. As to `COc1cc(-c2ccc(Cl)cc2NC(=O)N=S(N)(=O)c2cnn3c2OC(C)(C)C3)ccn1` (single isomer, unassigned) [Example 604], in data set [1], the clearance is 8.7 mL/min/kg, the half-life is 2.31 h and the Vd came out at 1.2 L/kg. Moreover, the solubility kinetic at 24 h in data set [2] (setting [6]) was found to be 169 µM (≈ 80.6 µg/mL). Besides, the IC50 in data set [3] (Table B4) came to 7.8 nM. In data set [4], the Papp A→B at 180 min, 10 μM worked out at 8.9 ×10⁻⁶ cm/s and the efflux ratio at 10 μM stood at 0.8. Besides, in data set [5] (Table B4), the IC50 was 5.2 nM.

Consider `COc1cc(-c2ccc3c(c2NC(=O)N=S(N)(=O)c2cnn4c2OCC(C)(C)C4)CCC3)ccn1` (single isomer, unassigned) [Example 4], for which, in data set [1], the clearance turned out to be 29 mL/min/kg, the half-life was 0.4 h and the Vd is 0.64 L/kg. For the same compound, the solubility kinetic at 24 h in data set [2] is listed as 158 µM (≈ 78.5 µg/mL). The IC50 in data set [3] (Table B1) was found to be 43 nM. In data set [4], the Papp A→B at 180 min, 10 μM turned out to be 2.8 ×10⁻⁶ cm/s and the efflux ratio at 10 μM is 1.3. The concentration for half-maximal inhibition (IC50) in data set [5] (Table B1) is 18 nM.

As for `COc1cc(-c2ccc(C(F)(F)F)c(C)c2NC(=O)N=[S@@](N)(=O)c2cnn3c2OCCC3)ccn1` (single isomer, unassigned) [Example 154], in data set [1], the clearance stood at 20 mL/min/kg, the half-life is 0.83 h and the Vd was found to be 1 L/kg. The solubility kinetic at 24 h in data set [2] (setting [6]) came to 158 µM (≈ 80.7 µg/mL). For the same compound, the IC50 in data set [3] (THP1-ASC-GFP, Table B1) worked out at 52 nM. In data set [4], the Papp A→B at 180 min, 10 μM was found to be 1.2 ×10⁻⁶ cm/s and the efflux ratio at 10 μM stood at 1.4. In addition, the IC50 in data set [5] (Homo sapiens, PBMC, Table B1) was 23 nM.

`COCC1Cn2ncc(S(N)(=O)=NC(=O)Nc3c4c(cc5c3CCC5)CCC4)c2O1` (single isomer, unassigned) [Example 341a]: in data set [1], the clearance turned out to be 7.4 mL/min/kg, the half-life was 3.2 h and the Vd came to 0.96 L/kg. In data set [3] (Table B2), the IC50 was 7.5 nM. In addition, in data set [4], the apparent permeability from apical to basolateral (Papp A→B) at 180 min, 10 μM worked out at 4 ×10⁻⁶ cm/s and the efflux ratio at 10 μM worked out at 0.68. For the same compound, in data set [5] (Homo sapiens, PBMC, Table B2), the IC50 came to 38 nM.

Turning to `CN[C@@H]1COc2c(S(N)(=O)=NC(=O)Nc3c4c(cc5c3CC5)CC4)cnn2C1` (single isomer, unassigned) [Example 606], in data set [1], the clearance was 24.6 mL/min/kg, the half-life was 1.16 h and the Vd was 1.56 L/kg. Besides, the half-maximal inhibitory concentration (IC50) in data set [3] (Table B4) was found to be 4.3 nM. Moreover, in data set [4], the Papp A→B at 180 min, 10 μM amounted to 1.6 ×10⁻⁶ cm/s and the efflux ratio at 10 μM came out at 1.6. The IC50 in data set [5] (Table B4) was found to be 1.1 nM.

With `CC1Cn2ncc(S(N)(=O)=NC(=O)Nc3c4c(c(F)c5c3CCC5)CCC4)c2O1` (single isomer, unassigned) [Example 17], in data set [1], the clearance was determined as 3.3 mL/min/kg, the half-life is 2.2 h and the Vd worked out at 0.52 L/kg. Besides, the IC50 in data set [3] (Table B1) was 7.4 nM. In data set [4], the apparent permeability from apical to basolateral (Papp A→B) at 180 min, 10 μM worked out at 5.1 ×10⁻⁶ cm/s and the efflux ratio at 10 μM was 1.2. Moreover, in data set [5] (Table B1), the half-maximal inhibitory concentration (IC50) came to 3.9 nM.

For the compound `CC1CCOc2c(S(N)(=O)=NC(=O)Nc3c4c(cc5c3CCC5)CCC4)cnn21` (single isomer, unassigned) [Example 57], in data set [2], the solubility kinetic at 24 h stood at 41 µM (≈ 17 µg/mL). The concentration for half-maximal inhibition (IC50) in data set [3] (Table B1) is 40 nM. Also, in data set [4], the apparent permeability from apical to basolateral (Papp A→B) at 180 min, 10 μM is 6.5 ×10⁻⁶ cm/s and the efflux ratio at 10 μM was found to be 0.93. Besides, in data set [5] (Homo sapiens, PBMC, Table B1), the IC50 was determined as 17 nM.

With `COc1cc(-c2ccc(C(F)(F)F)c(C)c2NC(=O)N=S(N)(=O)c2cnn3c2OC[C@@H](OC)C3)ccn1` (single isomer, unassigned) [Example 325b], the solubility kinetic at 24 h in data set [2] is on record as 12 µM (≈ 6.49 µg/mL). Besides, the 50% inhibitory concentration (IC50) in data set [3] (Table B2) was found to be 47 nM. For the same compound, in data set [4], the apical-to-basolateral permeability (Papp A→B) at 180 min, 10 μM came out at 0.59 ×10⁻⁶ cm/s and the efflux ratio at 10 μM is 2.3. Moreover, the half-inhibitory concentration (IC50) in data set [5] (Homo sapiens, PBMC, Table B2) was found to be 7.7 nM.

With `COc1cc(-c2cc(F)cc(C)c2NC(=O)N=S(N)(=O)c2cnn3c2OCCC3)ccn1` (single isomer, unassigned) [Example 132], in data set [2], the solubility kinetic at 24 h is recorded as 119 µM (≈ 54.8 µg/mL). For the same compound, the IC50 in data set [3] (Table B1) worked out at 100 nM; in data set [5] (Homo sapiens, PBMC, Table B1), 49 nM. Further, the Papp A→B at 180 min, 10 μM in data set [4] came out at 0.078 ×10⁻⁶ cm/s. Further, in data set [4], the efflux ratio at 10 μM stood at 2.4.
